Measured values published in patent publication US5985893A, “Physically stable solid form of a fluoroquinolone” (Pharmacia & Upjohn Company, priority 1996, dated 1999).
Several values for one entry are separate records, joined by “and”; a condition that tells them apart may be missing. Identical values can stand only once.

Assays:
Assay type in all cases: physicochemical
[1] = DSC and thermomicroscopy of solid-state transformations
Description: A Nikon POH-2 polarized light compound microscope with 10× objective is employed to view specimens mounted dry between a glass microscope slide and a no. 11/2 Cover slip. The samples are heated from ambient through 250° C. in a Mettler FP-80 microfurnace controlled by a Mettler FP-8 microprocessor. The heating rates may vary from 5-20° C./minute. The hot-stage experiments may be videotaped (Sony T120-HG and PM VHS tape) with a Hitachi VK-C350 Color Video Camera and a Panasonic AG-6200 Video Cassette Recorder.
Differential scanning calorimetry (DSC) is used to monitor enthalpy changes as a function of temperature during a linear temperature increase. A DuPont 910 DSC interfaced to a TA Instruments TA2100 computer may be used. The scan rate is 5° C./minute, and the instrument is operated with a 50-80 cc/min dry nitrogen purge. Samples are encapsulated in hermetically sealed aluminum sample pans with a pressure rating of about 2 bar. In some experiments, the lids of the pans are perforated to permit the passage of moisture and other volatile components.
Because calorimetric samples are occasionally affected by residual moisture, samples are sometimes studied with different initial water activities. Samples are weighed into tared DSC pans, and the open pans are permitted to equilibrate for several days in chambers of constant relative humidity at 25±1° C. These chambers are prepared from saturated salt solutions at 53% RH and 75% RH. At the end of the equilibration period, the chambers are opened, and the lids are placed over the samples to prevent re-equilibration with the ambient atmosphere. The samples are removed from the chambers, and the pans are quickly crimped closed.
Detailed description of FIG. 8. […] The heating rate is 5° C./minute. (a.) The sample is encapsulated in a standard DSC pan. (b.) The sample is encapsulated in a hermetically sealed DSC pan. The profiles are offset along the ordinate axis for comparison.
Detailed description of FIG. 10. […] The heating rate was 5° C./minute. (a.) The sample was equilibrated at 53% RH and encapsulated in a standard DSC pan. (b.)The sample was equilibrated at 53% RH and encapsulated in a hermetically sealed DSC pan. (c.) The sample was equilibrated at 75% RH and encapsulated in a hermetically sealed DSC pan. The profiles were offset along the ordinate axis for comparison.

[2] = Stability of the solid forms to phase transformation (overall finding); conditions: variety of conditions
[3] = Dynamic moisture sorption gravimetry (controlled atmosphere microbalance, 25° C)
Description: Dynamic Moisture Sorption Gravimetry
Dynamic moisture uptake is studied on the controlled atmosphere microbalance system at 25° C. About ten mg of sample are equilibrated on the balance for about 2 hours at 2.5% RH. The relative humidity surrounding the sample is increased in increments of 3% RH up to about 92% RH, at which point the RH is decremented in 3% steps to a final RH of about 2.5%. At each relative humidity, the sample is allowed to equilibrate until the mass is stable within 0.0005 mg over a ten minute period. The dry mass is assumed to correspond to the mass of the sample after the initial equilibration period. A controlled atmosphere microbalance is a balance system described by Bergren, M.S. Int. J. Pharm. (1994) Vol. 103, pp. 103-114.
(§1) Detailed description of FIG. 2. […] The ordinate represents the mass change relative to the lowest mass measurement. The abscissa is relative humidity. The circles represent points recorded after sequential increases in the relative humidity and the squares were recorded after decreases in the relative humidity. The horizontal line in the middle of the plot corresponds to the water content of the hypothetical monohydrate of the quinolone.
as §1, with “6.” for “2.”

[4] = Powder XRD after humidity exposure; conditions: 75% relative humidity, ambient temperature, 5 days
Description: A Rigaku DMAX-A X-ray diffractometer is employed for the acquisition of the powder XRD patterns. The instrument is operated with the copper K-L3 radiation at 1.5406 Å. The major instrumental parameters are set as follows: 40 KV voltage, 30 mA current, beam aperture of 1° and detector aperture (receiving slit) of 0.30°. Patterns are scanned over the range of 3-40° two-theta angles with a scan rate of 1.5° two-theta/min (step size of 0.05° and counting time at 2 second/step). Samples are ground to fine powders and packed into an aluminum tray.

- DSC first merged endotherm/exotherm (melt/recrystallization) ([1]; FIG. 8, 5° C./minute): 140-150 °C
- DSC second merged endotherm/exotherm (melt/recrystallization) ([1]; FIG. 8, 5° C./minute): 165-180 °C
- DSC melt/recrystallization range, probably direct Form I to Form III ([1]; equilibrated at 53% RH, hermetically sealed pan): 140-150 °C
- DSC exotherm prior to Form III melt ([1]; equilibrated at 75% RH, hermetically sealed pan): about 130 °C
- Temperature of Form I to Form II transformation ([1]; slow heating/ thermomicroscopy melt/recrystallization): 140-151 °C and 143-151 °C
- Moisture content on desorption ([3]; RH decreased to 10%): about 4.3%
- Moisture content on desorption ([3]; RH decreased to 80%): about 4.9%
- Moisture plateau ([3]; sorption, 90-92% RH): 7.5-7.7 % w/w
- Moisture pickup ([3]; sorption, up to 70% RH): 1%
Compound: CN[C@@H](C)[C@@H]1CCN(c2c(F)cc3c(=O)c(C(=O)O)cn(C4CC4)c3c2OC)C1 [Form I, [S-(R*,S*)]-1-cyclopropyl-6-fluoro-1,4-dihydro-8-methoxy-7-[3-[1-(methylamino)ethyl]-1-pyrrolidinyl]-4-oxo-3-quinolinecarboxylic acid]
- Stability to transformation (in words) [2]: undergo phase transformations under a variety of conditions
- Diffraction pattern after humidity exposure [4]: does not change after Form I is exposed to 75% relative humidity at ambient temperature for 5 days
